Laboratory results reported in patent US12378224B2 (Dong-A Socio Holdings Co., Ltd., priority 2016, dated 2025).

The molecules below were run against human MER (528-end) (Homo sapiens (Human), UniProt Q12866) (assay: HTRF Kinase Activity Biochemical Assay (KinEASE-TK)). Conditions: 10 uM ATP.
Procedure, shortened: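 Activity read-out is the HTRF ratio (665 nm over 620 nm emission, ×10,000; excitation 340 nm) after 1 h detection with 0.375 nM Eu3+-cryptate anti-TK antibody plus 0.062 uM SA-XL665. Preceding kinase step: human MER (528-end), biotinylated TK substrate, 1 h, room temperature.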

Chain of human MER (528-end) (Q12866 528-999 limits assumed): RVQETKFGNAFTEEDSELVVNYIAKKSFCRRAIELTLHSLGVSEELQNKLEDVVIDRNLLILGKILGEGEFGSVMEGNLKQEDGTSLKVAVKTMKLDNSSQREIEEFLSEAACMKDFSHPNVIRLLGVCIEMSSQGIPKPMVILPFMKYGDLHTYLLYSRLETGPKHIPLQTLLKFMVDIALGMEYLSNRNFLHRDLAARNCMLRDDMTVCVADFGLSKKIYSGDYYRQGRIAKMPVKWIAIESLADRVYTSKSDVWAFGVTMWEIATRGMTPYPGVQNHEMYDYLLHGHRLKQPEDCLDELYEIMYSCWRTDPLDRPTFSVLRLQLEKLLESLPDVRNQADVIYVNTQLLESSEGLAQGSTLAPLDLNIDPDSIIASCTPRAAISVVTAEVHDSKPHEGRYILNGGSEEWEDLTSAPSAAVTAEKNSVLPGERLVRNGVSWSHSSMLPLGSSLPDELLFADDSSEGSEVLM

Compound	IC50 [nM]
CC(C)c1ccccc1-c1ccc(C(=O)N2CC[C@@H](NC(=O)c3cc(-c4cnn(C)c4)cnc3N)C2)cc1 [Example 350, (R)-2-amino-N-(1-(2′-isopropyl-[1,1′-biphenyl]-4-carbonyl)pyrrolidin-3-yl)-5-(1-methyl-1H-pyrazol-4-yl)nicotinamide]	100 to 1000
Cn1cc(-c2cnc(N)c(C(=O)N[C@@H]3CCN(Cc4ccccc4Br)C3)c2)cn1 [Example 232, (R)-2-amino-N-(1-(2-bromobenzyl)pyrrolidin-3-yl)-5-(1-methyl-1H-pyrazol-4-yl)nicotinamide]	100 to 1000
Cn1cc(-c2cnc(N)c(C(=O)N[C@@H]3CCN(C(=O)c4ccc(-c5ccc(OCc6ccccc6)cc5)cc4)C3)c2)cn1 [Example 372, (R)-2-amino-N-(1-(4′-(benzyloxy)-[1,1′-biphenyl]-4-carbonyl)pyrrolidin-3-yl)-5-(1-methyl-1H-pyrazol-4-yl)nicotinamide]	> 1000
Cn1cc(-c2cnc(N)c(C(=O)N[C@@H]3CCN(C(=O)c4ccc(-c5ccc(O)cc5)cc4)C3)c2)cn1 [Example 380, (R)-2-amino-N-(1-(4′-hydroxy-[1,1′-biphenyl]-4-carbonyl)pyrrolidin-3-yl)-5-(1-methyl-1H-pyrazol-4-yl)nicotinamide]	100 to 1000
Cn1cc(-c2cnc(N)c(C(=O)N[C@@H]3CCN(C(=O)c4ccc(-c5ccccc5O)cc4)C3)c2)cn1 [Example 375, (R)-2-amino-N-(1-(2′-hydroxy-[1,1′-biphenyl]-4-carbonyl)pyrrolidin-3-yl)-5-(1-methyl-1H-pyrazol-4-yl)nicotinamide]	100 to 1000
COC(=O)[C@@H]1C[C@H](NC(=O)c2cc(-c3cnn(C)c3)cnc2N)CN1C(=O)c1ccc(-c2ccccc2)cc1 [Example 685, methyl (2S,4S)-1-([1,1′-biphenyl]-4-carbonyl)-4-(2-amino-5-(1-methyl-1H-pyrazol-4-yl)nicotinamido)pyrrolidine-2-carboxylate]	> 1000
Cn1cc(-c2cnc(N)c(C(=O)N[C@@H]3CCN(C(=O)c4ccc(-c5ccc(C(C)(C)C)cc5)cc4)C3)c2)cn1 [Example 378, (R)-2-amino-N-(1-(4′-(tert-butyl)-[1,1′-biphenyl]-4-carbonyl)pyrrolidin-3-yl)-5-(1-methyl-1H-pyrazol-4-yl)nicotinamide]	> 1000
Cn1cc(-c2cnc(N)c(C(=O)N[C@@H]3CCN(C(=O)c4cccc(-c5ccncc5)c4)C3)c2)cn1 [Example 473, (R)-2-amino-5-(1-methyl-1H-pyrazol-4-yl)-N-(1-(3-(pyridin-4-yl)benzoyl)pyrrolidin-3-yl)nicotinamide]	> 1000
Nc1ncc(-c2ccc(C(=O)N3CCN(CCO)CC3)cc2)cc1C(=O)N[C@@H]1CCN(C(=O)c2ccc(-c3ccccc3Cl)cc2)C1 [Example 589, (R)-2-amino-N-(1-(2′-chloro-[1,1′-biphenyl]-4-carbonyl)pyrrolidin-3-yl)-5-(4-(4-(2-hydroxyethyl)piperazine-1-carbonyl)phenyl)nicotinamide]	10 to 100
CN1CCC(COc2ccc(-c3ccc(C(=O)N4CC[C@@H](NC(=O)c5cc(-c6cnn(C)c6)cnc5N)C4)cc3)cc2)CC1 [Example 552, (R)-2-amino-5-(1-methyl-1H-pyrazol-4-yl)-N-(1-(4′-((1-methylpiperidin-4-yl)methoxy)-[1,1′-biphenyl]-4-carbonyl)pyrrolidin-3-yl)nicotinamide]	100 to 1000
Nc1ncc(-c2ccc(F)nc2)cc1C(=O)N[C@@H]1CCN(C(=O)c2ccc(-c3ccccc3)cc2)C1 [Example 560, (R)—N-(1-([1,1′-biphenyl]-4-carbonyl)pyrrolidin-3-yl)-6-amino-6′-fluoro-[3,3′-bipyridine]-5-carboxamide]	100 to 1000
Cn1cc(-c2cnc(N)c(C(=O)N[C@@H]3CCN(C(=O)Oc4ccc5cc(O)ccc5c4)C3)c2)cn1 [Example 104, 6-hydroxynaphthalen-2-yl (R)-3-(2-amino-5-(1-methyl-1H-pyrazol-4-yl)nicotinamido)pyrrolidine-1-carboxylate]	100 to 1000
Cn1cc(-c2cnc(N)c(C(=O)N[C@@H]3CCN(CCc4ccccc4)C3)c2)cn1 [Example 230, (R)-2-amino-5-(1-methyl-1H-pyrazol-4-yl)-N-(1-phenethylpyrrolidin-3-yl)nicotinamide]	> 1000
Cn1cc(-c2cnc(N)c(C(=O)N[C@@H]3CCN(C(=O)c4ccc(-c5cccc(CN)c5)cc4)C3)c2)cn1 [Example 727, (R)-2-amino-N-(1-(3′-(aminomethyl)-[1,1′-biphenyl]-4-carbonyl)pyrrolidin-3-yl)-5-(1-methyl-1H-pyrazol-4-yl)nicotinamide]	10 to 100
Cn1cc(-c2cnc(N)c(C(=O)N[C@@H]3CCN(C(=O)c4ccc(-c5ccccc5Oc5ccccc5)cc4)C3)c2)cn1 [Example 351, (R)-2-amino-5-(1-methyl-1H-pyrazol-4-yl)-N-(1-(2^1-phenoxy-[1,1′-biphenyl]-4-carbonyl)pyrrolidin-3-yl)nicotinamide]	> 1000
Cn1cc(-c2cnc(N)c(C(=O)N[C@@H]3CCN(C(=O)c4ccc(-c5ccc(N)cc5)cc4)C3)c2)cn1 [Example 662, (R)-2-amino-N-(1-(4′-amino-[1,1′-biphenyl]-4-carbonyl)pyrrolidin-3-yl)-5-(1-methyl-1H-pyrazol-4-yl)nicotinamide]	> 1000
Cn1cc(-c2cnc(N)c(C(=O)N[C@@H]3CCN(C(=O)Nc4cccc(-c5cccc(N)c5)c4)C3)c2)cn1 [Example 257, (R)-2-amino-N-(1-((3′-amino-[1,1′-biphenyl]-3-yl)carbamoyl)pyrrolidin-3-yl)-5-(1-methyl-1H-pyrazol-4-yl)nicotinamide]	100 to 1000
Cn1cc(-c2cnc(N)c(C(=O)N[C@@H]3CCN(C(=O)Oc4ccc5ccc(OCCO)cc5c4)C3)c2)cn1 [Example 299, 7-(2-hydroxyethoxy)naphthalen-2-yl (R)-3-(2-amino-5-(1-methyl-1H-pyrazol-4-yl)nicotinamido)pyrrolidine-1-carboxylate]	100 to 1000
Cn1cc(-c2cnc(N)c(C(=O)N[C@@H]3CCN(C(=O)c4ccc(-c5ccc(F)cc5Cl)cc4Cl)C3)c2)cn1 [Example 694, (R)-2-amino-N-(1-(2′,3-dichloro-4′-fluoro-[1,1′-biphenyl]-4-carbonyl)pyrrolidin-3-yl)-5-(1-methyl-1H-pyrazol-4-yl)nicotinamide]	> 1000

The next lines start with the values.

IC50 [nM]	Compound
> 1000	Cn1cc(-c2cnc(N)c(C(=O)N[C@@H]3CCN(Cc4ccccc4)C3)c2)cn1 [Example 205, (R)-2-amino-N-(1-benzylpyrrolidin-3-yl)-5-(1-methyl-1H-pyrazol-4-yl)nicotinamide]
> 1000	Cc1cc(OC(=O)N2CC[C@@H](NC(=O)c3cc(-c4cnn(C)c4)cnc3N)C2)ccc1Cl [Example 86, 4-chloro-3-methylphenyl (R)-3-(2-amino-5-(1-methyl-1H-pyrazol-4-yl)nicotinamido)pyrrolidine-1-carboxylate]
> 1000	COC(=O)c1cccc(OC(=O)N2CC[C@@H](NC(=O)c3cc(-c4cnn(C)c4)cnc3N)C2)c1 [Example 64, 3-(methoxycarbonyl)phenyl (R)-3-(2-amino-5-(1-methyl-1H-pyrazol-4-yl)nicotinamido)pyrrolidine-1-carboxylate]
> 1000	Cn1cc(-c2cnc(N)c(C(=O)N[C@@H]3CCN(C(=O)N[C@@H]4CCCC[C@H]4O)C3)c2)cn1 [Example 32, 2-amino-N—((R)-1-(((1R,2R)-2-hydroxycyclohexyl)carbamoyl)pyrrolidin-3-yl)-5-(1-methyl-1H-pyrazol-4-yl)nicotinamide]
100 to 1000	Cn1cc(-c2cnc(N)c(C(=O)N[C@@H]3CCN(C(=O)/C=C/c4ccc(Br)cc4)C3)c2)cn1 [Example 427, (R,E)-2-amino-N-(1-(3-(4-bromophenyl)acryloyl)pyrrolidin-3-yl)-5-(1-methyl-1H-pyrazol-4-yl)nicotinamide]
> 1000	COc1ccc(NC(=S)N2CC[C@@H](NC(=O)c3cc(-c4cnn(C)c4)cnc3N)C2)cc1 [Example 45, (R)-2-amino-N-(1-((4-methoxyphenyl)carbamothioyl)pyrrolidin-3-yl)-5-(1-methyl-1H-pyrazol-4-yl)nicotinamide]
> 1000	COC(=O)c1ccc(OC)cc1OC(=O)N1CC[C@@H](NC(=O)c2cc(-c3cnn(C)c3)cnc2N)C1 [Example 65, 5-methoxy-2-(methoxycarbonyl)phenyl (R)-3-(2-amino-5-(1-methyl-1H-pyrazol-4-yl)nicotinamido)pyrrolidine-1-carboxylate]
> 1000	Cn1cc(-c2cnc(N)c(C(=O)N[C@@H]3CCN(C(=O)OC4CCCCCC4)C3)c2)cn1 [Example 107, cycloheptyl (R)-3-(2-amino-5-(1-methyl-1H-pyrazol-4-yl)nicotinamido)pyrrolidine-1-carboxylate]
> 1000	Cn1cc(-c2cnc(N)c(C(=O)N[C@@H]3CCN(C(=O)c4ccc(-c5cnn(C6CCCC6)c5)cc4)C3)c2)cn1 [Example 508, (R)-2-amino-N-(1-(4-(1-cyclopentyl-1H-pyrazol-4-yl)benzoyl)pyrrolidin-3-yl)-5-(1-methyl-1H-pyrazol-4-yl)nicotinamide]
> 1000	Cn1cc(-c2cnc(N)c(C(=O)N[C@@H]3CCN(C(=O)N[C@@H]4CCCC[C@@H]4O)C3)c2)cn1 [Example 31, 2-amino-N—((R)-1-(((1R,2S)-2-hydroxycyclohexyl)carbamoyl)pyrrolidin-3-yl)-5-(1-methyl-1H-pyrazol-4-yl)nicotinamide]
> 1000	Cn1cc(-c2cnc(N)c(C(=O)N[C@@H]3CCN(C(=O)c4ccc(-c5cnn(C6CCOCC6)c5)cc4)C3)c2)cn1 [Example 509, (R)-2-amino-5-(1-methyl-1H-pyrazol-4-yl)-N-(1-(4-(1-(tetrahydro-2H-pyran-4-yl)-1H-pyrazol-4-yl)benzoyl)pyrrolidin-3-yl)nicotinamide]
> 1000	Cn1cc(-c2cnc(N)c(C(=O)N[C@@H]3CCN(C(=O)c4cccc(Br)c4)C3)c2)cn1 [Example 733, (R)-2-amino-N-(1-(3-bromobenzoyl)pyrrolidin-3-yl)-5-(1-methyl-1H-pyrazol-4-yl)nicotinamide]
